Among the data in patent US9073954B2, “5-substituted benzimidazolium compounds” (Boehringer Ingelheim International GmbH, priority 2013, dated 2015) are Papp A→B, Papp B→A and IC50 values, retold here.

The nature of data set [1]: Permeability in CALU-3 cells. The format is in vitro ADME. Particulars: human, CALU-3 monolayers, 10 μM compound, pH 7.4, 37° C.; for Papp A→B at 90 min, 10 μM: apical-to-basal; for Papp B→A at 90 min, 10 μM: basal-to-apical. How it is done:
Permeability in CALU-3 Cells:
Permeability measurements across polarized, confluent CALU-3 cell monolayers grown on permeable filter supports are used to provide information on the potential of a compound to pass the lung epithelium. Apparent permeability coefficients (Papp) of the compounds across the CALU-3 cell monolayers are measured (pH 7.4, 37° C.) in apical-to-basal (AB) and basal-toapical (BA) transport direction.
CALU-3 cells (1-2×10^5 cells/1 cm^2 area) are seeded on filter inserts (Costar transwell polycarbonate filters, 0.4 μm pore size) and cultured (for 10-12 days DMEM) until tight monolayers are formed. Compounds of interest are dissolved in appropriate solvent (DMSO, 10 mM stock solution). Stock solutions are diluted with HTP-4 buffer (128.13 mM NaCl, 5.36 mM KC, 1 mM MgSO4, 1.8 mM CaCl2, 4.17 mM NaHCO3, 1.19 mM Na2HPO4×7H2O, 0.41 mM NaH2PO4xH2O, 15 mM HEPES, 20 mM glucose, 0.25% BSA, pH 7.4) to prepare the transport solutions (10 μM compound, final DMSO<=0.5%). The transport solution (TL) is applied to the apical or basolateral donor side for measuring A-B or B-A permeability (3 filter replicates), respectively. The receiver side contains the same buffer as the donor side. After 30 min of accommodation, samples are collected at the start t0=0 min and at the end of the experiment tn=90 min from the donor and at 0, 30, 60, and 90 min also from the receiver chamber. Volume removed is replenished by HTP-4 buffer. The compound concentration in the samples is measured by HPLC-MS/MS or scintillation counting. The permeability coefficient (Papp) and efflux ratio are calculated according to: Papp [cm/s]=(concentration receiver [nM]*volume receiver [mL]/time interval [sec])*(1/filter area)*(1/donor concentration [nM])
With example compounds given above, the following permeability values were determined in the CALU-3 cells assay: […]

Data set [2] addresses T1, ENaC (Epithelial Sodium Channel) (Mus musculus, UniProt Q61180+Q9WU38+Q9WU39).
T1 construct: Mouse kidney M-1 cells were cultivated in DMEM; endogenous in cells; host or cells: mouse kidney M-1 cells
T1 sequence (Q61180 1-699): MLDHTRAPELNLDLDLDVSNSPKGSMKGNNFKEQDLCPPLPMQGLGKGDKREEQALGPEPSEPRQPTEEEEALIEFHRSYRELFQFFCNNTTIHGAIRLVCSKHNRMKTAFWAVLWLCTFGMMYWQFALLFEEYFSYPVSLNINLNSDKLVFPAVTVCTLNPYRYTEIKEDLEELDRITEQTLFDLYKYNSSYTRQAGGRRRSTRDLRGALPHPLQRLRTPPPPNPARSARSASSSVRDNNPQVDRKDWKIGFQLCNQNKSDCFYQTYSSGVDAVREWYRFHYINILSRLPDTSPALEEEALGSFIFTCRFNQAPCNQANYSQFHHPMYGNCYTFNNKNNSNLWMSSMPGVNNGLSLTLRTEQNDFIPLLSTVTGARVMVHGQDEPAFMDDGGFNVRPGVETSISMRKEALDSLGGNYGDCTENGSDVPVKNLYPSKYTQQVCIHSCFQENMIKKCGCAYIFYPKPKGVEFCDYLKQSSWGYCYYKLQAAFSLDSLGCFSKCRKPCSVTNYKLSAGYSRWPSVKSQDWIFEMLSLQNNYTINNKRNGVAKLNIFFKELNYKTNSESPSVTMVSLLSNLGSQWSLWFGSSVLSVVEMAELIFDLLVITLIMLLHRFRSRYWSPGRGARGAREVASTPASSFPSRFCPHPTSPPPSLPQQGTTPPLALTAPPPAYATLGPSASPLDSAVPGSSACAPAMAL
T1 sequence (Q9WU38 1-638): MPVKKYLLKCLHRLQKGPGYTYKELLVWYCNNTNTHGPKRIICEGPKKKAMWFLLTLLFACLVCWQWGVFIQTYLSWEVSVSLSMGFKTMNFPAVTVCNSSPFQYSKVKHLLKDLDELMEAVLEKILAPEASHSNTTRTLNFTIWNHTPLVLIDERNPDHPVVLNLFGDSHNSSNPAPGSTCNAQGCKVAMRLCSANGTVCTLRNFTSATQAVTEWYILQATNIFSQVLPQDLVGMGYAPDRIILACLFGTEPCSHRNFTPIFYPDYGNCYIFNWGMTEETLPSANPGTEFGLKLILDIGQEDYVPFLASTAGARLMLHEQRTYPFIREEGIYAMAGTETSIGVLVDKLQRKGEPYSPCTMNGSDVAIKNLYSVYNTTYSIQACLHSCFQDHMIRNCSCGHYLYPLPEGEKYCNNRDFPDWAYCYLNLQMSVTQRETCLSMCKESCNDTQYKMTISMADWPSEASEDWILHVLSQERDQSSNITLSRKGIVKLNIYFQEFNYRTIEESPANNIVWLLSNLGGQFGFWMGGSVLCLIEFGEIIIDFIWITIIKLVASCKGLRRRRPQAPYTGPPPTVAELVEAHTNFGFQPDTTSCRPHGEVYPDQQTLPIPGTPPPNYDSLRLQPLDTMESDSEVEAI
T1 sequence (Q9WU39 1-655): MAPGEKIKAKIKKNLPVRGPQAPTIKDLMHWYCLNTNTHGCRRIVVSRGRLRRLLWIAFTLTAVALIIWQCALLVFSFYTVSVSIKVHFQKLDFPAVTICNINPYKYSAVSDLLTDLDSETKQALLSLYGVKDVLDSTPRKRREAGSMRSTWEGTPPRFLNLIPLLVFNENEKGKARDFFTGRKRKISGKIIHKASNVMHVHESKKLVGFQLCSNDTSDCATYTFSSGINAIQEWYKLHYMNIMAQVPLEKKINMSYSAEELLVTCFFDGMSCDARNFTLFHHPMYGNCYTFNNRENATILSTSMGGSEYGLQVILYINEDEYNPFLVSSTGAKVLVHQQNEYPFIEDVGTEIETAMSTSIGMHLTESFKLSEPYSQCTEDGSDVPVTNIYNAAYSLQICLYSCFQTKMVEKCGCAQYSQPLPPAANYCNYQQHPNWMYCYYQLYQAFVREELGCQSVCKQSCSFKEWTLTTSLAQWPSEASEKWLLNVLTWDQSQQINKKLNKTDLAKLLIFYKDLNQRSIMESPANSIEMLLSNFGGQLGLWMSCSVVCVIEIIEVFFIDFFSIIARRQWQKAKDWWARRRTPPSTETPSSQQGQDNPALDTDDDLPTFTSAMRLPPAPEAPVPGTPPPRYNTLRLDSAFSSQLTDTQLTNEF
In words: Ussing chamber: short circuit current in M-1 cells. The conditions noted are these: Ussing chamber, mouse kidney M-1 cells, amiloride sensitive I_SC, apical application, 37° C.; read-out: IC50. It is filed as cell-based. Here is the method:
Mouse kidney M-1 cells were cultivated in DMEM containing 5% FCS and 5 μM dexamethasone for 10 to 12 days on polyester transwell filters. Filters were inserted into a teflon-coated well-plate which fit into the ussing chamber system. Prior to measurement the medium of M-1 cells was replaced with Caco-2 transport buffer (Invitrogen, Germany). During measurements, the Ussing chamber temperature was kept at 37° C. Short circuit currents (I_sc) were measured in the voltage-clamp mode with the software package Lab View for data acquisition and analysis. The transepithelial electrical resistance (TEER) was determined by the application of voltage steps of ±5 mV every 5 sec. Compounds were administered at a final concentration of 3 μM or at increasing concentrations (1-3-10 μM) to the apical solution. At the end of each experiment the amiloride sensitive I_SC was measured by adding 3 μM amiloride to the apical compartment. Results are expressed as inhibition in percent of the amiloride effect or as IC50.
With the example compounds given above, the following IC50 values were determined in the Ussing Chamber assay: […]

Each structure is given as a SMILES string.

Broadly, the Papp A→B is the apparent permeability from the apical to the basolateral side of a cell layer. Low readings indicate poor permeation, high ones ready permeation. For orientation: Papp B→A means the apparent permeability from the basolateral to the apical side of a cell layer. A word on the IC50: it is the concentration at which inhibition is half-maximal. Take `CCOP(=O)([O-])CCCOc1ccc2c(c1)n(CC)c(CNC(=O)c1nc(Br)c(N)nc1N)[n+]2CCOC` [Example 2.1]: in data set [1], the Papp A→B at 90 min, 10 μM stood at 0.2 ×10⁻⁶ cm/s and the apparent permeability from basolateral to apical (Papp B→A) at 90 min, 10 μM is 0.08 ×10⁻⁶ cm/s. The IC50 in data set [2] amounted to 16 nM.

In data set [1], `CCNC(=O)[C@@H](C)Oc1ccc2c(c1)n(CC)c(CNC(=O)c1nc(Cl)c(N)nc1N)[n+]2CC` [Example 3.5] registered an apical-to-basolateral permeability (Papp A→B) at 90 min, 10 μM of 1 ×10⁻⁶ cm/s and an apparent permeability from basolateral to apical (Papp B→A) at 90 min, 10 μM of 0.4 ×10⁻⁶ cm/s. The IC50 in data set [2] amounted to 0.5 nM.

In data set [1], `CCn1c(CNC(=O)c2nc(Cl)c(N)nc2N)[n+](C)c2cc(Cl)c(OCCOCCOC)cc21` [Example 3.8] came in with a Papp A→B at 90 min, 10 μM of 0.2 ×10⁻⁶ cm/s and a Papp B→A at 90 min, 10 μM of 0.2 ×10⁻⁶ cm/s. The IC50 in data set [2] is 0.4 nM.

On to `CCn1c(CNC(=O)c2nc(Cl)c(N)nc2N)[n+](CC)c2cc(F)c(C(=O)N3CCOCC3)cc21` [Example 3.12], for which, in data set [1], the apical-to-basolateral permeability (Papp A→B) at 90 min, 10 μM turned out to be 0.1 ×10⁻⁶ cm/s and the basolateral-to-apical permeability (Papp B→A) at 90 min, 10 μM stood at 0.2 ×10⁻⁶ cm/s. Further, the IC50 in data set [2] was determined as 0.4 nM.

Turning to `CCn1c(CNC(=O)c2nc(Cl)c(N)nc2N)[n+](CC)c2ccc(CNC(=O)CN(C)C)cc21.[Cl-]` [Example 7.1], in data set [1], the Papp A→B at 90 min, 10 μM was < 0.9 ×10⁻⁶ cm/s and the apparent permeability from basolateral to apical (Papp B→A) at 90 min, 10 μM amounted to 0.2 ×10⁻⁶ cm/s. Also, the IC50 in data set [2] worked out at 2 nM.
